Results on 1 substance are retold here after patent publication US20260028404A1 (UNIVERSITY OF KANSAS, priority 2022, published 2026).

“Also recorded” adds a separate entry of the source.

One data set addresses Ki-67. Kind of data set: Ki-67 IHC of pre- and post-treatment tumor specimens. In kind it is in vivo, human. To be noted: for Ki67 results, biopsy: before treatment. The method, then:
Ki-67 and Caspase-3 levels: To potentially detect an early signal for anti-tumoral efficacy of Copaxone® treatment, changes in the level of Ki-67 and caspase-3 before and after treatment with Copaxone® were evaluated by IHC. FFPE tumor sections from pre-and post-treatment specimens were mounted on the same slide and stained using Caspase 3 (Biocare, Pacheco, CA) and Ki-67 (MIB-1) (Dako, Carpinteria, CA).

In data set [1] the test system is 28 immune related proteins. The data set can be described thus: GeoMx digital spatial profiling, biopsy vs resected treated tumor. In kind it is in vivo, human. On the procedure: GeoMx DSP analysis: Digital spatial profiling of pre-and post-treatment formalin-fixed, paraffin embedded (FFPE) tumor tissue was performed using the GeoMx DSP platform (NanoString Technologies) to measure levels of 28 protein markers associated with immune oncology. Specifically, the immune cell profiling core protein module and IO drug target protein module were used for this analysis following manufacturer's protocol for staining, hybridization, collection, detection (nCounter based-counting), and data normalization. Briefly, this entailed an initial pathologist review of hematoxylin and eosin-stained sections by a pathologist at KUMC to verify presence of tumor cells within the FFPE block. Next, a 5 μm-think unstained FFPE slide was subjected to a cocktail of primary antibodies conjugated with unique DNA-oligonucleotide moieties attached with a light sensitive photocleavable linker. Within this cocktail were also anti-pan-cytokeratin (included with GeoMx assay and used for the basal cell carcinoma and squamous cell carcinoma samples) or anti-MART-1 (Novus Biologicals, catalog #NBP2-46603AF647 used for targeting epithelium in melanoma samples), CD45 (for targeting immune cells) and Syto-13 (used as a nuclear stain). These fluorescently labeled antibodies were used for imaging and identifying the regions of interest (ROIs) followed by segmentation into tumor cells and immune cells for independent collection from each ROI into individual wells of a 96-well plate followed by digital quantification using the NanoString nCounter platform. The GeoMx DSP Analysis Suite version 2.4 was used to perform data QC, normalization, and statistical analysis following guidance by NanoString field scientists. For analysis of similar cell populations (i.e., expression levels only in epithelial cells or only in immune cells), the geometric mean of housekeeping proteins GAPDH, Histone H3, and S6 was used for normalization. When different cell populations were being analyzed (i.e., expression levels in epithelial versus immune cells), the geometric mean of the signal-to-noise ratio of negative control mouse and rabbit isotype IgG controls was used for background correction prior.
The GeoMx Digital Spatial Profiling (DSP) platform (NanoString) was used to profile 28 immune related proteins. This platform allows users to perform nondestructive interrogation of formalin-fixed paraffin embedded (FFPE) tissue (among other tissue types) for multiplexed spatial profiling of immunooncology-related proteins to assess tumor cells and their microenvironment. The GeoMx platform uses a cocktail of antibodies conjugated to photocleavable DNA-barcoded oligos to provide high multiplex capacity and the use of guided ultraviolet light exposure (by way of adjustable 1 million micromirrors) provides a high degree of flexibility in selection of regions of interest for study. DSP technology and the GeoMx platform have been extensively reviewed.
Using the GeoMx DSP platform, we performed in situ digital spatial profiling of tissue specimens collected from the COPAX trial patients before and after treatment to measure levels of 28 proteins (Immune cell profiling panel, and the IO drug target panel). After a pathologist review of H&E-stained tissue specimens to assess presence of tumor cells, GeoMx DSP analysis was performed on a serial unstained slide for each sample. Regions of interest (ROIs) which encompassed both tumor and immune cells were selected either by free-hand drawing using the polygon tool or using a standard circle. The ROIs were further segmented into tumor cells and immune cells based on the staining pattern of morphology markers (pan-cytokeratin and CD45 for the carcinomas and MARTI and CD45 for the melanomas). Following segmentation, the DNA bar codes corresponding to each target in the antibody cocktail were collected by the instrument. […]

The next data set concerns EO771 tumors. The data set can be described thus: EO771 triple negative breast cancer model, GA dose escalation with anti-PD1. Also on record: species or system C57BL/6 mice. To be noted: mouse, in vivo. The method, then:
GA was evaluated for its intratumoral efficacy and dose dependency in tumors alone and in combination with systemic anti-PD1 in the murine Triple negative breast cancer model EO771. EO771 cells were implanted to C57BL/6 mice on Day 0. In this study, two doses of intraperitoneal anti-PD1 (100 μg or 250 μg) and three doses of intratumoral GA (300 μg, 1 mg, 2 mg) were evaluated. Primary tumors were measured by caliper measurement. Tumor volumes were calculated according to the formula, tumor volume (mm^3)=0.52×(width)^2 ×length, where length is the longer of two perpendicular dimensions.

The test system of another data set is Clone M3 tumors. Kind of data set: Cloudman M3 (Clone M3) melanoma model. As to conditions: through 21 days; 2 mg GA IT x5, 10 mg/kg antibody IP x3. In kind it is in vivo, DBA/2N mice.
The subject of a further data set is CT26wt tumors. The data set can be described thus: Example 6 syngeneic CT26wt model with anti-mPD-L1. In kind it is in vivo, BALB/c mice. As to conditions: of 8 animals on Day 0. The method, then:
FIG. 14. […] Female BALB/c mice were implanted with CT26wt tumor cells into the mammary fat pad on Day 0 and were treated as depicted in the figure legends. […] The number of animals alive on Days 0 (implantation) and 45 (study termination), are shown for each group in parenthesis.
Each experimental group contained eight female BALB/c mice after randomization. On Day 0, 0.5×10^6 CT26wt murine colon adenocarcinoma tumor cells in 100 μl PBS were implanted into the left mammary fat pad of each mouse.
After animals had been randomized on Day 6, treatments were initiated on the same day. […] All groups were evaluated versus the Control, which were animals that had been treated with 25 μl/mouse Vehicle Control (4% mannitol) i.t. in combination with 10 mg/kg Isotype Control i.p.
During the course of the study, individual animals were either euthanized prior to study end without performing a necropsy, after they had reached humane endpoint, or were found dead. On Day 45, the study was terminated and all remaining animals were euthanized without performing a necropsy.

For data set [2] the following is noted: in vivo; cited from earlier work.

Method for Clone M3 tumors: Mice were randomized into treatment groups when tumors reached mean volumes of 50-80 mm^3 at Day 7.
Treatment groups consisted of vehicle control (n=7, 4% mannitol IT plus 10 mg/kg isotype control antibody IP), anti-PD1 alone (n=5, 4% mannitol IT plus 10 mg/kg anti-PD1 IP), GA alone (2 mg GA IT plus 10 mg/kg isotype control IP), or GA+anti-PD1 combination (n=5, 2 mg GA IT plus 10 mg/kg anti-PD1 IP). Intratumoral treatments were administered 5 times at a frequency of 3 times per week and 50 μL per injection beginning on Day 7. Intraperitoneal antibody was given beginning on Day 7 as well, but for a total of 3 times on a frequency of every 3-4 days.
Primary tumors were measured by caliper measurement. Tumor sizes were
calculated according to the formula (W^2×L)/2. Animals were euthanized when any tumor diameter dimension exceeded 1.8 cm.

For Glatiramer acetate [GA], the “Ki67 results, treated” value at Ki-67 (patient BCCa-Left Nasal Ala, after 2 Copaxone injections) is listed as 60%; on Ki-67 (patient BCCa-Right Flank, after 3 Copaxone injections), 44%; at Ki-67 (patient BCCa-Right Post. Neck, after 2 Copaxone injections), 45%; at Ki-67 (patient SCCa-Right Cheek, after 1 Copaxone injection), 45%. Also, the “Ki67 results, biopsy” value on Ki-67 (patient BCCa-Left Nasal Ala) is 65%; at Ki-67 (patient BCCa-Right Flank) it was 62%; at Ki-67 (patient BCCa-Right Post. Neck), 70%; on Ki-67 (patient SCCa-Right Cheek), 55%. Moreover, the “Ki67, marker of cell proliferation (overall)” value with Ki-67 (patients, biopsy vs treated tumor) is “Consistent reductions in Ki67”. The “patients with CD56 upregulated” value in data set [1] (Table B patients) is 2 patients. Besides, in data set [1] (Table B patients), the “patients with PD-L1 upregulated” value is reported as 3 patients. Also, the “Gene expression (upregulated post-treatment)” value was “CD56, CD11c,” in data set [1] (patient BCCa-Left Nasal Ala, 2 Copaxone injections); “VISTA, GITR” in data set [1] (patient BCCa-Right Post. Neck, 2 Copaxone injections); “CD45, CD3,; also recorded: OX401, GITR,” in data set [1] (patient SCCa-Right Cheek, 1 Copaxone injection). Further, the “immune marker expression after treatment (GeoMx, overall)” value in data set [1] (patients, biopsy vs resected treated tumor, listed as Copaxone®) was “immunostimulatory effect at the intratumoral injection site; also recorded: Several patients exhibited upregulated expression of genes that encode targets for checkpoint inhibitor therapy; also recorded: upregulated markers of stimulatory immune activity; also recorded: Immune markers including hallmarks of T cell recruitment and activation were upregulated in tumors”. Further, in the data set on EO771 tumors, the “systemic cytokines associated with cytokine release syndrome” value is “does not induce systemic cytokines typically associated with cytokine release syndrome”. Moreover, the “mouse survival (not exceeding 1750 mm^3 tumor volume or 1.8 cm diameter)” value in the data set on Clone M3 tumors is reported as “three of five”. In the data set with CT26wt tumors, the “number of animals alive on Day 45 (study termination)” value was 0. The systemic exposure result in data set [2] is listed as “negligible systemic exposure”.
